In PubChem BioAssay (NCI):
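Five compound concentrations were applied to cells in 96-well plates for 48 hours; endpoints were derived by simple linear interpolation of the resulting dose-response curve. The concentration for 50% growth inhibition is given as GI50. The concentration for full growth arrest is given as TGI.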

Legend:
Experiment in all cases: inhibition of tumour cell growth, NCI panel, 48 h
A549 NSCLC = tested on: A549 NSCLC
COLO 205 colon = tested on: COLO 205 colon
HL-60(TB) leukemia = tested on: HL-60(TB) leukemia
HOP-62 NSCLC = tested on: HOP-62 NSCLC
MDA-MB-435 = tested on: MDA-MB-435
PC-3 prostate = tested on: PC-3 prostate
SF-539 CNS = tested on: SF-539 CNS
SNB-75 CNS = tested on: SNB-75 CNS

SMILES	GI50 (A549 NSCLC)	TGI (A549 NSCLC)	GI50 (COLO 205 colon)	TGI (COLO 205 colon)	GI50 (HL-60(TB) leukemia)	TGI (HL-60(TB) leukemia)	GI50 (HOP-62 NSCLC)	TGI (HOP-62 NSCLC)	GI50 (MDA-MB-435)	TGI (MDA-MB-435)	GI50 (PC-3 prostate)	TGI (PC-3 prostate)	GI50 (SF-539 CNS)	TGI (SF-539 CNS)	GI50 (SNB-75 CNS)	TGI (SNB-75 CNS)
CN(CCCCCl)P(=O)(OCCS(=O)(=O)CC(NC(=O)CCC(N)C(=O)O)C(=O)NC(C(=O)O)c1ccccc1)OCC1OC(n2ccc(N)nc2=O)C(O)C1O (stereo unspecified)	4.45 µM	> 75 µM	22 µM	> 75 µM	2.84 µM	> 30.3 µM	33.7 µM	> 75 µM	28.3 µM	> 75 µM	2.26 µM	> 75 µM	> 75 µM	> 75 µM	40.4 µM	74.6 µM
CC(=O)/C(=C/c1ccccc1)C(=O)CC(C)C	26.5 µM	73.8 µM	16.9 µM	35.5 µM	22.1 µM	90.2 µM	26.8 µM	71.8 µM	2.44 µM	7.72 µM	25.6 µM	93.6 µM	23.4 µM	49.4 µM	21.2 µM	42.4 µM
COc1cc2c3cc1Oc1c(OC)c(OC)cc4c1C(=NCC4)Cc1ccc(cc1)Oc1cc(ccc1O)C[C@H]3N(C)CC2		> 100 µM		26.3 µM		96.5 µM		44.7 µM		37.3 µM		42.5 µM		27.9 µM		40.2 µM
O=C(CCl)NCCNc1nccc(Nc2ccc(S(=O)(=O)Nc3ccccn3)cc2)n1	3.4 µM	13 µM	3.22 µM	11.6 µM			2.17 µM	5.46 µM	1.96 µM	7.13 µM	2.5 µM	7.45 µM	1.85 µM	3.9 µM	2.84 µM	13.3 µM
CC1=CC(C)=NN=C(N)N1S(=O)(=O)c1cc(C)c(Cl)cc1SCc1ccccc1	31.3 µM	> 100 µM	27.9 µM	> 100 µM	6.75 µM	> 100 µM	72.4 µM	> 100 µM	21.3 µM	> 100 µM	6.15 µM	> 100 µM	> 100 µM	> 100 µM	23.5 µM	> 100 µM
Cc1c(O)c(N=Nc2nc3ccccc3s2)c2ccccc2c1O	19.8 µM	> 50 µM	21.4 µM	> 50 µM	> 50 µM	> 50 µM	> 50 µM	> 50 µM	19.8 µM	> 50 µM	32 µM	> 50 µM	18.3 µM	> 50 µM		
O=C1C(=C(C(F)(F)Cl)C(F)(F)Cl)C2CCC1C2 (stereo unspecified)		> 10 µM		3.25 µM		> 3.16 µM		> 10 µM		3.81 µM		5.48 µM		> 6.2 µM		> 10 µM
CCCc1n(Cc2ccc3ccccc3c2)cc[n+]1Cc1ccc2ccccc2c1	2.67 µM	12.1 µM	0.458 µM	1.72 µM	0.321 µM	1.17 µM	1.26 µM	2.8 µM	0.564 µM	2.06 µM	1.17 µM	3.49 µM	1.1 µM	2.85 µM	0.514 µM	3.04 µM
CSc1c(C2=C(c3cn(C)c4ccccc34)C(=O)NC2=O)c2ccccc2n1C	1.14 µM	> 25 µM	0.675 µM	> 25 µM	0.703 µM	3.55 µM	1.38 µM	> 25 µM			0.795 µM	> 25 µM			0.728 µM	> 12.6 µM
CCCCC(CCCCCC(CCCC)NCc1ccc2c(c1)OCO2)NCc1ccc2c(c1)OCO2 (stereo unspecified)	0.426 µM	1.02 µM	0.189 µM	0.35 µM	0.458 µM	1.21 µM	0.836 µM	2.13 µM	0.199 µM	0.398 µM	1.01 µM	2.53 µM	0.664 µM	1.48 µM	1.46 µM	2.78 µM
Cc1ccc2oc(=O)cc(/C(=C3/C=CC=N3)c3ccc[nH]3)c2c1	0.59 µM	10.9 µM	1.49 µM	3.49 µM	0.271 µM	0.717 µM	0.533 µM	5.53 µM	0.211 µM	0.544 µM	0.274 µM	1.54 µM	0.226 µM	0.67 µM	0.335 µM	4.46 µM
COc1cc(Oc2c(C)c(Cl)c(OC)c(Cl)c2OC)c2c(c1Cl)COC2=O		> 100 µM		> 100 µM		31.6 µM				> 100 µM				> 100 µM		> 100 µM
CCCCCCCCCCCCCCCCCc1nccn1CCOCCO	4.88 µg/mL	10.2 µg/mL	6.07 µg/mL	11.4 µg/mL	7.56 µg/mL	15.2 µg/mL	5.37 µg/mL	10.8 µg/mL	5.85 µg/mL	11.7 µg/mL	4.9 µg/mL	10.7 µg/mL	5.74 µg/mL	11.1 µg/mL	4.88 µg/mL	9.7 µg/mL
O=S(=O)(CCN1CCOCC1)Nc1cc(-c2ccc3ncnc(Nc4ccc(F)c(Cl)c4)c3c2)cnc1Cl	1.62 µM	6.29 µM			1.15 µM	12.4 µM	0.578 µM	14.2 µM	0.712 µM	10.3 µM	0.36 µM	15.1 µM	0.418 µM	2.69 µM		
COc1ccc(C#Cc2ccc(=O)oc2-c2cc(OC)c(OC)c(OC)c2)cc1O	7.08 µM	> 100 µM	37.3 µM	> 100 µM	2.13 µM	17.4 µM	5.12 µM	> 64.6 µM	0.234 µM	2.78 µM	8.22 µM	> 100 µM	6.27 µM	40.4 µM	5.52 µM	27.8 µM
O=C(CC1(O)C(=O)N(Cc2ccccc2)c2ccc(Cl)cc21)c1ccc(C(=O)NCC2CCC3(CC2)OOC2(CCCCC2)OO3)cc1 (stereo unspecified)	0.215 µM	0.456 µM	0.626 µM	1.66 µM			0.189 µM	0.39 µM	0.394 µM	1.4 µM	1.33 µM	9.11 µM	0.191 µM	0.379 µM	1.35 µM	3.39 µM
